From the METLIN SMRT retention time set (Domingo-Almenara et al. 2019) come the findings set out here.

SMILES strings stand for the structures.

This data set in a line: gradient 5% acetonitrile 3 min, to 50% in 2 min, to 85% in 15 min, held 3 min, 100 µL/min. Particulars: column: Zorbax Extend-C18 2.1 x 50 mm; eluents: water / acetonitrile, 0.1% formic acid. The method, boiled down: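 Using water and acetonitrile that each contained 0.1% formic acid, mixtures of ~100 pure standards were separated at 100 μL/min on a Zorbax Extend-C18 column (2.1 × 50 mm, 1.8 μm). The HPLC fed a quadrupole time-of-flight mass spectrometer working in positive and negative ionization mode, with dead and dwell volumes of 40 μL and 900 μL. Data were acquired over 3 months. Retention time was read from computationally picked adduct peaks after manual inspection of each.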
In turn, `O=C(Nc1sc2c(c1CN1CCN(c3ccccn3)CC1)CCCC2)c1ccco1` came in with an RP-LC retention time of 671 s.

Take `CCc1cccc(C)c1NC(=O)CSc1ccc(N2CCCC(C(=O)NC3CC3)C2)nn1` (centres undefined): the RP-LC retention time was found to be 662 s.

As for `CCOc1ccc(NC(=O)Cn2cccc2-c2nnc(C3CC3)o2)cc1`, the RP-LC retention time was determined as 847 s.

`O=C(NC1CCCC1)C1CC(=O)N(c2ccc3c(c2)CCN3C(=O)C2CCC2)C1` (centres undefined) showed an RP-LC retention time of 760 s.

Consider `O=C(Cn1nc(S(=O)(=O)c2cccc(F)c2)ccc1=O)N1CCN(c2ccccc2F)CC1`, for which the RP-LC retention time was 885 s.

Regarding `COc1ccc(-n2cc(C(=O)NCCc3c[nH]c4ccc(F)cc34)nn2)cc1`, the RP-LC retention time was found to be 871 s.

With `CC1CCCN(C(=O)c2cn(-c3ccc(S(=O)(=O)N4CCCC(C)C4)cn3)cn2)C1` (centres undefined), the RP-LC retention time was found to be 939 s.

`CC(C)c1ccc(CNC(=O)c2ccc3ncnc(N4CCOCC4)c3c2)cc1`: the RP-LC retention time amounted to 708 s.

For `CSc1ccc(CNC(=O)Cn2c(=O)c3cccn3c3ccc(F)cc32)cc1`, the RP-LC retention time turned out to be 861 s.

On to `Cn1c(N2CCCC(C(=O)N3CCN(Cc4ccccc4)CC3)C2)cc(=O)n(C)c1=O` (centres undefined), for which the RP-LC retention time is 597 s.

On to `CCSc1nnc(NC(=O)Cn2cnc(C(C)C)cc2=O)s1`, for which the RP-LC retention time was found to be 664 s.

The compound `CCn1ccc2sc(C)c(C(=O)NCc3ccccc3Br)c2c1=O` showed an RP-LC retention time of 926 s.

On to `Cc1ccc(Cn2cc(-c3ccncc3)cc2C(=O)NC(C)c2ccccn2)cc1` (centres undefined), for which the RP-LC retention time was 620 s.

With `Cc1oc(C2CCN(S(=O)(=O)c3ccc(Cl)cc3)CC2)nc1C(=O)N(C)C`, the RP-LC retention time amounted to 863 s.

Compound `O=C(C1CCCN(c2nc3ccccc3n3cccc23)C1)N1CCN(c2ccc(F)cc2)CC1` (centres undefined) displayed an RP-LC retention time of 805 s.

Turning to `CSc1ccc(-c2noc(-c3nnn4c3COC(c3ccc(C)cc3C)C4)n2)cc1` (centres undefined), the RP-LC retention time was 1360 s.

Regarding `COc1ccccc1N1CCN(CCCCNC(=O)c2ccc3ccccc3c2)CC1`, the RP-LC retention time is 666 s.

Compound `CN(C)c1ccc(C(=O)NCc2nn(C)c3ccccc23)cc1` gave an RP-LC retention time of 778 s.

Consider `CC(C)Sc1ccc(CC(=O)NCC2CCN(C(=O)NC(C)(C)C)CC2)cc1`, for which the RP-LC retention time was determined as 828 s.

As for `COC(=O)c1ccc(-c2nc3cnccn3c2Nc2cc(OC)ccc2OC)cc1`, the RP-LC retention time was found to be 870 s.

`Cc1ccsc1C(=O)NCCc1cn(CC(C)C)c2ncccc12`: the RP-LC retention time was found to be 844 s.

`O=C(NCc1cccnc1)c1ccc2c(c1)NC(=O)C1CCCCN21` (centres undefined): the RP-LC retention time stood at 585 s.

Compound `OCCN(Cc1ccccc1)CC(O)COc1ccc(Cl)cc1Cl` (centres undefined) displayed an RP-LC retention time of 602 s.

`Cc1ccc(C)c(NC(=O)Cn2nc3cc(C)nc(N4CCCC4)n3c2=O)c1` displayed an RP-LC retention time of 785 s.

`COc1ccccc1OCC1c2ccsc2CCN1C(=O)CN(CC1CC1)C(=O)C1CC1` (centres undefined) came in with an RP-LC retention time of 928 s.

In turn, `Cc1ccc2c(c1)N(Cc1ccccc1C)N=C(C(=O)N1CCCCC1)S2(=O)=O` registered an RP-LC retention time of 1040 s.

As for `O=C(Nc1ccc(F)cc1F)c1ccc(N2C(=O)CCC2=O)cc1`, the RP-LC retention time came out at 671 s.

For the compound `C#C[C@]1(O)CC[C@H]2[C@@H]3CCC4=CC(=O)CCC4=C3C=C[C@@]21CC`, the RP-LC retention time is 1050 s.

Take `CCc1nc2cc(-c3noc(-c4cncc(Br)c4)n3)ccc2o1`: the RP-LC retention time turned out to be 1160 s.

`Cc1nc(-c2csc(S(=O)(=O)N3CCCC(C(=O)NCc4ccc(N(C)C)cc4)C3)c2)no1` (centres undefined) yielded an RP-LC retention time of 686 s.

Consider `O=c1c2sccc2n(Cc2nc(-c3ccc(F)c(Cl)c3)no2)c(=O)n1-c1ccc(F)cc1`, for which the RP-LC retention time amounted to 1090 s.

In turn, `O=C(Cn1c(=O)c2cccn2c2ccc(F)cc21)NCCN1CCCCCC1` displayed an RP-LC retention time of 623 s.

Consider `O=C(c1ccccc1OCC1CCCN(C2CCC2)C1)N1CCCC1` (centres undefined), for which the RP-LC retention time was 615 s.

For `O=C(Cn1c(=O)c2cc(C3CC3)nn2c2ncccc21)NCc1cccs1`, the RP-LC retention time is 711 s.

`CN(C)c1ccc(/C=C2\Cc3ccccc3C2=O)cc1Br` registered an RP-LC retention time of 1170 s.

Turning to `CCCCN1CCN(C(=O)C2CC(=O)N(c3ccc4c(c3)CCN4C(=O)C3CC3)C2)CC1` (centres undefined), the RP-LC retention time is 599 s.

Turning to `O=C(c1ccco1)N1CCN(S(=O)(=O)c2ccc(-c3cc(C(F)(F)F)on3)o2)CC1`, the RP-LC retention time came to 951 s.

For the compound `Cc1cc(N2CCN(S(=O)(=O)c3cc(F)ccc3C)CC2)nc(N2CCCC2)n1`, the RP-LC retention time is 783 s.

The compound `O=C(Cn1nc2nc(Nc3ccc(F)cc3)ccn2c1=O)Nc1ccccc1F` yielded an RP-LC retention time of 754 s.

Compound `CCOc1ccc(S(=O)(=O)N2CCC(C(=O)NC)CC2)cc1C` had an RP-LC retention time of 761 s.

`O=C(Nc1ccc2c(c1)CN(C(=O)c1cc(C3CC3)[nH]n1)CCO2)C1CC1` yielded an RP-LC retention time of 696 s.

In turn, `COc1ccc(-c2nnc(-c3cc(S(=O)(=O)N4CCCC4)ccc3Cl)o2)cc1` returned an RP-LC retention time of 1040 s.

Consider `CC(NC(=O)c1ccc2c(c1)OCO2)C(=O)N1CCN(c2ccccn2)CC1` (centres undefined), for which the RP-LC retention time stood at 580 s.

`CS(=O)(=O)Nc1nc2ccccc2[nH]1` displayed an RP-LC retention time of 645 s.

Consider `COc1cccc(CNC(=O)N2CCCC2c2cc(C)no2)c1` (centres undefined), for which the RP-LC retention time worked out at 706 s.

Turning to `O=C(NCCCn1ccnc1)C(=O)Nc1c2c(nn1-c1cccc(Cl)c1)CSC2`, the RP-LC retention time is 568 s.

As for `Cc1nc(-c2csc(S(=O)(=O)N3CCCC(C(=O)Nc4ccccc4F)C3)c2)no1` (centres undefined), the RP-LC retention time is 929 s.

Compound `COc1ccc(C(CNC(=O)c2cc(=O)c3cc(C)c(C)cc3o2)N(C)C)cc1` (centres undefined) registered an RP-LC retention time of 644 s.

In the case of `CCn1c(=O)n(Cc2cccnc2)c(=O)c2cnc(-c3ccc(OC)cc3)nc21`, the RP-LC retention time is 762 s.

Compound `COc1ccc(C2(C(=O)N3CCC4(CC3)c3nccn3-c3ccccc3CN4C)CC2)cc1` showed an RP-LC retention time of 630 s.

Take `COc1ccc(C(=O)N2CCC3(CC2)NC(=O)c2cc(F)ccc2N3C)cc1OC`: the RP-LC retention time was 715 s.

Turning to `Cc1noc(C)c1CC(=O)N1CCOc2ccc(NC(=O)C3CC3)cc2C1`, the RP-LC retention time is 676 s.

Consider `CCNC(=O)N1CCc2nc(-c3ccc(F)cc3)ncc2C1`, for which the RP-LC retention time was 752 s.

In turn, `O=C1NC2(CCN(C(=O)Nc3ccc4c(c3)OCO4)CC2)N=C1c1ccccc1` showed an RP-LC retention time of 746 s.

Compound `Cc1noc(-c2ccnc(-n3cnc(C(=O)NCc4ccc(Cl)cc4)c3)c2)n1` returned an RP-LC retention time of 903 s.

`Cc1noc(C)c1S(=O)(=O)N1CCC2(CCC(CN(C)Cc3ccncc3)O2)CC1` (centres undefined) showed an RP-LC retention time of 604 s.

In turn, `Cc1n[nH]c(C)c1S(=O)(=O)N1CCOCC1` registered an RP-LC retention time of 582 s.

`CCC(C(=O)NCCCN1CCCC1)n1nc(C)c2nn(-c3ccccc3)c(C)c2c1=O` (centres undefined) yielded an RP-LC retention time of 645 s.

`COc1ccc(Cl)c2c(=O)c3c([nH]c12)CCN(CC(=O)Nc1cccc(C#N)c1)C3` came in with an RP-LC retention time of 801 s.

Take `CCc1nc(-c2cccc(NC(=O)c3cncc(Br)c3)c2)no1`: the RP-LC retention time was determined as 926 s.

The compound `Cc1noc(C)c1S(=O)(=O)N1CCC(Cn2c(C)cnc2-c2ccccc2)C1` (centres undefined) displayed an RP-LC retention time of 658 s.

The compound `COc1cc(OC)c(NC(=O)C2=C(C)C(=O)OC23CCN(C(C)=O)CC3)cc1Cl` registered an RP-LC retention time of 730 s.

For `Cc1nc2cc(-c3noc(Cc4ccc(Cl)cc4)n3)ccc2o1`, the RP-LC retention time worked out at 1070 s.

As for `COCCCNC(=O)C1CCN(c2cncnc2N2CCCCC2)CC1`, the RP-LC retention time is 606 s.

As to `COC(=O)c1ccc2c(c1)N(Cc1cccc(F)c1)C(=O)CS2=O` (centres undefined), the RP-LC retention time was found to be 744 s.

Turning to `Cc1ccccc1C(=O)NCCc1c[nH]c2ccc(Cl)cc12`, the RP-LC retention time was 889 s.

The compound `COc1cccc(Cn2c(C(=O)N3CCC(C(=O)NCC4CCCCC4)CC3)cc3ccsc32)c1` yielded an RP-LC retention time of 1090 s.

`Cc1cnc(C(=O)N2CCC3(CCC3O)CC2)cn1` (centres undefined) registered an RP-LC retention time of 605 s.

`Cc1cc(Cl)ccc1NC(=O)c1cccn1-c1cccnc1` registered an RP-LC retention time of 798 s.

In turn, `CCOc1ccccc1NC(=O)N1CCCC(Cn2c(C3CC3)nc3cccnc32)C1` (centres undefined) gave an RP-LC retention time of 725 s.

`COc1ccc(-c2nnc(CC(=O)NCC3CCCO3)o2)cc1` (centres undefined) had an RP-LC retention time of 650 s.

As to `COCc1nc(CCNS(=O)(=O)c2ccc(F)cc2)no1`, the RP-LC retention time worked out at 731 s.

Compound `COc1ccc(CNC(=O)N2CCC3(C2)C(=O)N(C)c2ccc(OC)cc23)cc1` (centres undefined) yielded an RP-LC retention time of 747 s.

As to `COc1ccc(N2COc3ccc4c(c3C2)O/C(=C\c2ccco2)C4=O)cc1`, the RP-LC retention time is 700 s.

As for `CCOC(=O)c1cccc(NC(=O)C2CCN(S(=O)(=O)c3ccc4[nH]c(=O)ccc4c3)CC2)c1`, the RP-LC retention time is 768 s.

Regarding `CC(C)c1ccc(-n2ccnc(NC(=O)Nc3cccc(F)c3)c2=O)cc1`, the RP-LC retention time is 1140 s.

As to `COc1ccc(C(=O)N2CCN(c3nc(CN4CCOCC4)cs3)CC2)cc1`, the RP-LC retention time came to 833 s.

As to `CN(C)c1ccc(/C=C/c2ccc3ccccc3n2)cc1`, the RP-LC retention time was 785 s.

With `O=C(Cn1ccc2ccc(N3CCOCC3)nc21)N1CCN(c2ccccc2Cl)CC1`, the RP-LC retention time was determined as 1060 s.
